The record followed here is article PMC11357054, “Azobenzenesulfonamide Carbonic Anhydrase Inhibitors as New Weapons to Fight Helicobacter pylori: Synthesis, Bioactivity Evaluation, In Vivo Toxicity, and Computational Studies” (Pharmaceuticals, 2024).

Values after ≈ are worked out from the molar mass of the structure shown. Like-named read-outs stand apart in the source and are kept apart here. A value given as a limit tells only on which side of the number the result lay.

Assay [1] concerns the target T1, hCA I (Homo sapiens, UniProt P00915).
T1 construct: gene CA1; purchased from Merck
Put plainly: stopped-flow CO2 hydration. The format is biochemical. Particulars: read-out: KI (nM) * / Human Isoforms / hCA I. The text has this:
stopped-flow CO2 hydration on hCA I

The target of assay [2] is T2, hCA II (Homo sapiens, UniProt P00918).
T2 construct: gene CA2; purchased from Merck
Put plainly: stopped-flow CO2 hydration. Format: biochemical. Particulars: read-out: KI (nM) * / Human Isoforms / hCA II. The source says: stopped-flow CO2 hydration on hCA II

Assay [3] deals with T3, hCA IX (Homo sapiens, UniProt Q16790).
T3 construct: gene CA9
As to the kind of experiment: stopped-flow CO2 hydration. Particulars: read-out: KI (nM) * / Human Isoforms / hCA IX. Format: biochemical. The text has this: stopped-flow CO2 hydration on hCA IX

Assay [4] deals with T4, PgiγCA.
T4 construct: gene PgiCA; recombinant, obtained in-house
As to the kind of experiment: stopped-flow CO2 hydration. Format: biochemical, Porphyromonas gingivalis. The conditions noted are these: pH […] HEPES, […] Na2SO4, […] min preincubation, r.t.; read-out: KI (nM) * / Bacterial Isoforms / Pgi γCA.

For assay [5], the target named is T5, HpαCA (Helicobacter pylori, UniProt B5Z8I0).
T5 construct: gene HPG27_1129; recombinant, obtained in-house; PDB 4XFW is given for docking only
T5 sequence (B5Z8I0 22-247): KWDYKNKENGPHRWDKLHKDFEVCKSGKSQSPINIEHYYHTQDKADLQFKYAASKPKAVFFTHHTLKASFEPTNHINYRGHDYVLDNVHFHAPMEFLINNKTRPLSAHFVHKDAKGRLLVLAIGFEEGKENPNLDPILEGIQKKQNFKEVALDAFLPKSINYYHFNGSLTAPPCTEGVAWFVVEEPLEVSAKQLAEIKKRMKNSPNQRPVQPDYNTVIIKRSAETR
As to the kind of experiment: stopped-flow CO2 hydration. Format: biochemical.

Assay [6] addresses T6, EcoβCA (Escherichia coli, UniProt P61517).
T6 construct: gene can; recombinant, obtained in-house
Put plainly: stopped-flow CO2 hydration. The format is biochemical. Particulars: read-out: KI (nM) * / Bacterial Isoforms / Eco βCA.

Assay [7] concerns the target T7, hCA XII (Homo sapiens, UniProt O43570).
T7 construct: gene CA12
As to the kind of experiment: stopped-flow CO2 hydration. Particulars: read-out: KI (nM) * / Human Isoforms / hCA XII. The format is biochemical. The source says: stopped-flow CO2 hydration on hCA XII

Assay [8] deals with T8, HpβCA (Helicobacter pylori, UniProt Q9ZN54).
T8 construct: gene cynT; recombinant, obtained in-house
T8 sequence (Q9ZN54 1-221): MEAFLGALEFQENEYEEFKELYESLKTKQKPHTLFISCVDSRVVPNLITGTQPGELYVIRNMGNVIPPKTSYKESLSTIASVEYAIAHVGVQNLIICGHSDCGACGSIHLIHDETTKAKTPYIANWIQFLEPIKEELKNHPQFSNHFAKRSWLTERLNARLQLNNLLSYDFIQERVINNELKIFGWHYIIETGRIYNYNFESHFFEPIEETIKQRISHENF
Put plainly: stopped-flow CO2 hydration. Format: biochemical. Particulars: read-out: KI (nM) * / Bacterial Isoforms / Hp βCA.

In assay [9] the target is T9, PsCA3 (Pseudomonas aeruginosa, UniProt Q9HVB9).
T9 construct: gene PA4676; recombinant, obtained in-house
T9 sequence (Q9HVB9 1-215): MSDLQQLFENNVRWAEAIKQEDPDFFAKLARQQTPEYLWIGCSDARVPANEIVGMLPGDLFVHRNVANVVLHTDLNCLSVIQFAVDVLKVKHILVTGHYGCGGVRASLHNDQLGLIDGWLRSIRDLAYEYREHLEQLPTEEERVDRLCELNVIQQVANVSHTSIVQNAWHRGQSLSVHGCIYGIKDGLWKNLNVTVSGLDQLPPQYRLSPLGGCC
As to the kind of experiment: stopped-flow CO2 hydration. Format: biochemical. The conditions noted are these: read-out: KI (nM) * / Bacterial Isoforms / Ps CA3.

The target in assay [10] is T10, PgiβCA.
T10 construct: gene PgiCAb; recombinant, obtained in-house
Put plainly: stopped-flow CO2 hydration. The format is biochemical, Porphyromonas gingivalis. Particulars: pH […] HEPES, […] Na2SO4, […] min preincubation, r.t.; read-out: KI (nM) * / Bacterial Isoforms / Pgi βCA.

In assay [11] the test system is T11, H. pylori ATCC 43504.
T11 construct: ATCC 43504
Put plainly: microbe, parasite or virus in culture. Particulars: Helicobacter pylori, ATCC43504. Further details: species or system Helicobacter pylori ATCC 43504; MIC by broth microdilution, alamarBlue and CFU count; MBC by CFU count. How it is done: H. pylori ATCC 43504 was cultured on a Columbia Agar base (Becton Dickinson and Company, Franklin Lakes, NJ, USA) supplemented with 10% horse serum (Merck, St. Louis, MO, USA) and 0.25% yeast extract (Oxoid Ltd., Hampshire, UK), incubated at 37 °C for 72 h in a microaerophilic atmosphere (CampyGen, Thermo Fisher Scientific, Milan, Italy). Colonies were collected and transferred into 10 mL of Brain Heart Infusion broth (BHI, Oxoid Ltd., Hampshire, UK) supplemented with 5% (v/v) of fetal bovine serum (FBS, Merck, Milan, Italy) and incubated overnight at 37 °C, at 125 rpm under microaerophilic conditions. After 18 h of incubation, the broth culture was diluted to obtain a bacterial suspension of 10^6 CFU/mL. MICs were determined by three different assays: the broth micro-dilution method, the alamarBlue assay, and the CFU count. […] This bacterium was selected based on the inhibitory potency evidenced by the two series of azobenzenesulfonamides against the HpCAs.

The target of assay [12] is T6, EcoβCA. As to the kind of experiment: biochemical. Particulars: read-out: Bacterial Isoforms / Eco βCA. How it is done:
(§1) An Applied Photophysics stopped-flow instrument was used to evaluate the ability of the test compounds to inhibit CA-catalyzed CO2 hydration. […] The CO2 concentrations ranged from 1.7 to 17 mM for the determination of the kinetic parameters and inhibition constants. Enzyme concentrations spanned from 5 to 12 nM. Stock solutions of the inhibitor (0.1 mM) were prepared in distilled–deionized water, and dilutions up to 0.01 nM were prepared with the assay buffer. Inhibitor and enzyme solutions were preincubated for 15 min at r.t. for the formation of the E–I complex. The inhibition constants were obtained by non-linear least-squares methods using PRISM 3 and the Cheng–Prusoff equation and represent the mean from at least three different determinations. Apart from human CAs I and II purchased from Merck, all the bacterial CAs were recombinant and obtained in-house. Compounds 4a–j and 5a–j were tested on a large panel of human and bacterial isoenzymes belonging to different CA families, evaluating their inhibitory activity through the CO2 hydration activity assay by means of the stopped-flow technique, and the inhibitory constants (KIs) are reported in Table 1 and Table 2, respectively. In particular, we tested the hypoxic tumor-associated hCAs IX and XII, and bacterial isoforms involved in several infectious diseases, such as those caused by H. pylori (HpαCA and HpβCA), Porphyromonas gingivalis (PgiβCA and PgiγCA), Escherichia coli (EcoβCA), Pseudomonas aeruginosa (PsCA3, belonging to the β-class), Mammaliicoccus (Staphylococcus) sciuri (MscCA, belonging to the β-class), and Streptococcus mutans (SmuCA, belonging to the β-class). The inhibition of human physiologically relevant isoforms I and II was also investigated in order to assess the compounds’ selectivity. Our main aim was to rationalize the structural requirements of sulfonamide-containing compounds useful for targeting HpCAs, in order to gain a larger knowledge for further optimization studies focusing on isoform selectivity. In fact, although the tested human and bacterial isoforms present a low degree of sequence similarity, they catalyze the same reaction and contain the catalytically active zinc ion in the active site. Thus, a comparison of the data obtained from different members of this large superfamily has a high relevance in the field. By observing Table 1 and Table 2, interesting structure–activity relationship (SAR) considerations can be inferred.

Assay [13] has as its target T9, PsCA3. Put plainly: biochemical. The conditions noted are these: read-out: Bacterial Isoforms / Ps CA3. How it is done:
as §1

The target in assay [14] is T1, hCA I. Put plainly: biochemical. Particulars: read-out: Human Isoforms / hCA I. How it is done: as §1
The target in assay [15] is T2, hCA II. As to the kind of experiment: biochemical. Particulars: read-out: Human Isoforms / hCA II. How it is done:
as §1

Assay [16] concerns the target T3, hCA IX. Put plainly: biochemical. The conditions noted are these: read-out: Human Isoforms / hCA IX. How it is done:
as §1

For assay [17], the target named is T7, hCA XII. Put plainly: biochemical. The conditions noted are these: read-out: Human Isoforms / hCA XII. How it is done:
as §1

Setting [18] is: read-out: KI (nM) * / Bacterial Isoforms / Hp αCA.
[19] abbreviates: read-out: KI (nM) / Bacterial Isoforms / Hp αCA.

T7 sequence (O43570 30-289 limits assumed): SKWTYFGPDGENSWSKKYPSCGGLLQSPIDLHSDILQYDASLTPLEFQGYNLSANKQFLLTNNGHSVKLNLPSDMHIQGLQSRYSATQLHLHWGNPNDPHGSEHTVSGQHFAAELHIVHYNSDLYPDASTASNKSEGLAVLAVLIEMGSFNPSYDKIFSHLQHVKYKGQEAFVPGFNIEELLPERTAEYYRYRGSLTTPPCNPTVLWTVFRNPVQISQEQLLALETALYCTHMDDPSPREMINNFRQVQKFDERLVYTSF
T1 sequence (P00915 2-261): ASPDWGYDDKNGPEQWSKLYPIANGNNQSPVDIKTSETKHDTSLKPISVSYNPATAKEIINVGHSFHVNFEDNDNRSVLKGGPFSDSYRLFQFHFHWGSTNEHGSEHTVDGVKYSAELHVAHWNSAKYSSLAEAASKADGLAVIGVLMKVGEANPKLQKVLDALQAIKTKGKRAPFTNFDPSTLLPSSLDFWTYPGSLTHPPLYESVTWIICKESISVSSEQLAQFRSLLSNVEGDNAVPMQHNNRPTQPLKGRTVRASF
T6 sequence (P61517 whole entry): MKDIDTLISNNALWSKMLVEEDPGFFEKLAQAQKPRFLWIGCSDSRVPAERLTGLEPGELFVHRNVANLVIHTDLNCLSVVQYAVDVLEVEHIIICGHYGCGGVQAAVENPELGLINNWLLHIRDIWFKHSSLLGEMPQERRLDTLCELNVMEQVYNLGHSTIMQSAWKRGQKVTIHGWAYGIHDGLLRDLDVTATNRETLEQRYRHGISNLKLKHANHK

`Cc1cc(O)cc(C)c1/N=N/c1ccc(S(N)(=O)=O)cc1` [4g, (E)-4-((4-hydroxy-2,6-dimethylphenyl)diazenyl)benzenesulfonamide]: the Ki in assay [1] came out at 4.9 nM; in [2], 3.7 nM; in [3], 171 nM; in [4], 939 nM; in assay [5] (setting [18]), 142 nM; in assay [6] it was 550 nM. Moreover, the Ki worked out at 63.9 nM in [7], 74.3 nM in [8], 879 nM in assay [9] and 3670 nM in assay [10]. For the same compound, the MBC in [11] was 32 µg/mL (≈ 105 µM). This compound showed an MIC in assay [11] of 16 µg/mL (≈ 52.4 µM).

Consider `Cc1ccc(O)c(/N=N/c2ccc(S(N)(=O)=O)cc2)c1` [4h, (E)-4-((2-hydroxy-5-methylphenyl)diazenyl)benzenesulfonamide], for which the Ki in assay [1] was 68.4 nM; in assay [2] it was 6.6 nM; in [3] it was 184 nM; in assay [4], 772 nM; in assay [5] (setting [18]), 130 nM; in assay [6] it was 360 nM. Besides, the Ki in [7] amounted to 9.6 nM; in [8], 127 nM; in assay [9], 980 nM; in assay [10] it was 3850 nM. The MBC in assay [11] turned out to be 64 µg/mL (≈ 220 µM). In [11], this compound displayed an MIC of 32 µg/mL (≈ 110 µM).

Regarding `Cc1cc(/N=N/c2ccc(S(N)(=O)=O)cc2)ccc1O` [4i, (E)-4-((4-hydroxy-3-methylphenyl)diazenyl)benzenesulfonamide], the Ki was determined as 4.4 nM in assay [1]; 3.4 nM in [2]; 181 nM in assay [3]; 6330 nM in [4]; 140 nM in assay [5] (setting [18]); 2110 nM in assay [6]. Further, the Ki in assay [7] turned out to be 7.5 nM; in assay [8], 119 nM; in [9], 114 nM; in [10], 2070 nM. For the same compound, in [11], the MBC turned out to be 64 µg/mL (≈ 220 µM). The compound further gave an MIC in [11] of 32 µg/mL (≈ 110 µM).

For `Cc1cc(O)ccc1/N=N/c1ccc(S(N)(=O)=O)cc1` [4j, (E)-4-((4-hydroxy-2-methylphenyl)diazenyl)benzenesulfonamide], the Ki is 5.3 nM in assay [1]; 4.7 nM in assay [2]; 213 nM in [3]; 914 nM in assay [4]; 72.2 nM in [5] (setting [18]); 3040 nM in [6]. The Ki was 84.1 nM in assay [7], 138 nM in assay [8], 1840 nM in assay [9] and 5780 nM in [10]. In addition, the MBC in assay [11] stood at 32 µg/mL (≈ 110 µM). In assay [11], the MIC was found to be 16 µg/mL (≈ 54.9 µM).

For `O=S(=O)(Nc1ccc(N=Nc2ccccc2)cc1)c1ccccc1` [5a], the Ki in assay [5] (setting [19]) is 460 nM; in assay [12], 6.95 µM; in assay [13] it was 9.28 µM; in assay [14], 0.209 µM; in assay [15] it was above 100 µM; in [16] it was 3.98 µM. Also, the Ki in [17] came out at 0.955 µM. The compound further displayed an MBC in assay [11] of 32 µg/mL (≈ 94.8 µM). The same compound showed an MIC in [11] of 16 µg/mL (≈ 47.4 µM).

As to `N#Cc1ccc(S(=O)(=O)Nc2ccc(N=Nc3ccccc3)cc2)cc1` [5b], the Ki in assay [5] (setting [19]) was 75.6 nM; in [12] it was 73.4 µM; in assay [13], 5.76 µM; in assay [14], 0.359 µM; in [15], above 100 µM; in [16], 0.614 µM. Also, in [17], the Ki worked out at 0.76 µM. This compound gave an MBC in assay [11] of 64 µg/mL (≈ 177 µM). This compound showed an MIC in assay [11] of 32 µg/mL (≈ 88.3 µM).

For `N#Cc1ccc(S(=O)(=O)Nc2ccc(N=Nc3ccccc3)cc2)c(Cl)c1` [5c], the Ki in assay [5] (setting [19]) is 77.6 nM; in assay [12], 9.21 µM; in [13], above 100 µM; in assay [14] it was 0.908 µM; in assay [15], 24.7 µM; in assay [16] it was 9.2 µM. Further, in assay [17], the Ki is 1.75 µM. The compound also returned an MBC in [11] of 8 µg/mL (≈ 20.2 µM). In [11], this compound registered an MIC of 4 µg/mL (≈ 10.1 µM).

For the compound `O=[N+]([O-])c1cccc(S(=O)(=O)Nc2ccc(N=Nc3ccccc3)cc2)c1` [5d], the Ki was 70.9 nM in [5] (setting [19]); 9.08 µM in assay [12]; 90.2 µM in assay [13]; 6.75 µM in [14]; above 100 µM in [15]; 0.601 µM in assay [16]. Also, the Ki in [17] is 0.215 µM. In assay [11], this compound displayed an MBC of 64 µg/mL (≈ 167 µM). In addition, in [11], the MIC was 16 µg/mL (≈ 41.8 µM).
